# Experiments:
# Type in all cases: in vivo, human
# healthy male volunteers = assay: Clinical pharmacology drug interaction study with short-acting nitrates (Example 5)
# Experimental: This study was a randomized, double-blind, placebo-controlled, two-way crossover design clinical pharmacology drug interaction study that evaluated the hemodynamic effects of concomitant administration of a selective PDE5 inhibitor Study Drug (i.e., the compound of structural formula (I)) and short-acting nitrates on healthy male volunteers. In this study, the subjects received either the Study Drug at a dose of 10 mg or a placebo, daily for seven days. On the sixth or seventh day, the subjects received sublingual nitroglycerin (0.4 mg) while supine on a tilt table. The nitroglycerin was administered 3 hours after Study Drug dosing, and all subjects kept the nitroglycerin tablet under their tongue until it completely dissolved. The subjects were tilted to 70° head-up every 5 minutes for a total of 30 minutes with measurement of blood pressure and heart rate. There were no discontinuations among the twenty-two healthy male subjects (ages 19 to 60 years old) that entered this study.
# [1] = test system: patients in need thereof (erectile function); assay: Two randomized, double-blinded placebo controlled studies, daily and on demand dosing (Example 6)
# Experimental: In two randomized, double-blinded placebo controlled studies, the compound of structural formula (I), at a range of doses in both daily dosing and for on demand therapy for sexual encounters and intercourse in the home setting, was administered to patients in need thereof.
# Erectile function was assessed by the International Index of Erectile Function (IIEF) (Rosen et al., Urology, 49, pp. 822-830 (1997)), diaries of sexual attempts, and a global satisfaction question.
# [2] = test system: men with mild to severe erectile dysfunction; assay: Randomized, double-blind, placebo-controlled on demand study in male erectile dysfunction (Example 7); conditions: for patients who rated their ability to maintain an erection (IIEF Question 4) during intercourse as almost always or always / patients who rated their penetration ability (IIEF Question 3) as almost always or always: at endpoint
# Experimental: A third clinical study was a randomized, double-blind, placebo-controlled study using a compound of structural formula (I) (Study Drug) administered “on demand” to patients with male erectile dysfunction. The Study Drug was administered over a period of eight weeks in the treatment of male erectile dysfunction (ED). Erectile dysfunction (ED) is defined as the persistent inability to attain and/or maintain an erection adequate to permit satisfactory sexual performance. “On demand” dosing is defined as intermittent administration of Study Drug prior to expected sexual activity. The study population consisted of 212 men, at least 18 years of age, with mild to severe erectile dysfunction. The Study Drug was orally administered as tablets of coprecipitate made in accordance with Butler U.S. Pat. No. 5,985,326. […] Treatment with all nitrates, azole antifungals (e.g., ketoconazole or itraconazole), warfarin, erythromycin, or antiandrogens was not allowed at any time during the study. No other approved or experimental medications, treatments, or devices used to treat ED were allowed. Forty-one subjects were administered a placebo. The two primary efficacy variables were the ability of a subject to penetrate their partner and their ability to maintain an erection during intercourse, as measured by the International Index of Erectile Function (IIEF). The IIEF Questionnaire contains fifteen questions, and is a brief, reliable measure of erectile function. See R. C. Rosen et al., Urology, 49, pp. 822-830 (1997). Secondary efficacy variables were IIEF domain scores for erectile function, orgasmic function, sexual desire, intercourse satisfaction, and overall satisfaction; the patient's ability to achieve an erection, ability to insert their penis into their partner's vagina, completion of intercourse with ejaculation, satisfaction with the hardness of their erection, and overall satisfaction, all as measured by the Sexual Encounter Profile (SEP) diary; and a global assessment question asked at the end of the treatment period. The SEP is a patient diary instrument documenting each sexual encounter during the course of the study. The safety analysis of the study included all enrolled subjects, and was assessed by evaluating all reported adverse events, and changes in clinical laboratory values, vital signs, physical examination results, and electrocardiogram results.
# [3] = 10 mg daily for seven days, sublingual nitroglycerin 0.4 mg, preliminary analysis
# [4] = 10 mg daily for seven days, preliminary analysis
# [5] = 2 to 25 mg on demand, eight weeks
compound,measurement,setting,value
"CN1CC(=O)N2[C@H](c3ccc4c(c3)OCO4)c3[nH]c4ccccc4c3C[C@@H]2C1=O [Compound 5, (6R-trans)-6-(1,3-benzodioxol-5-yl)-2,3,6,7,12,12a-hexahydro-2-methylpyrazino[1′,2′:1,6]pyrido[3,4-b]indole-1,4-dione]",serious adverse events,healthy male volunteers; [3],no serious adverse events
same,tolerability,healthy male volunteers; [3],well tolerated
same,changes in laboratory safety assessments or 12-lead ECGs,healthy male volunteers; [4],no Study Drug-associated changes in laboratory safety assessments or 12-lead ECGs
same,most common adverse events,healthy male volunteers; [4],"headache, dyspepsia, and back pain"
same,effects on mean systolic blood pressure and on mean maximal nitroglycerin-induced decrease in systolic blood pressure,"healthy male volunteers; 10 mg daily, nitroglycerin 0.4 mg 3 hours after dosing, tilt table",minimal effects
same,impact on systolic blood pressure,"healthy male volunteers; human clinical studies, administered in conjunction with organic nitrates",minimal impact on systolic blood pressure
same,efficacy,[1]; 10 mg dose,fully efficacious
same,side effects,[1]; 10 mg dose,minimal side effects (no flushing and no reports of blue vision)
same,efficacy,[1]; doses from 5 to 20 mg,efficacious
same,flushing,[1]; doses from 5 to 20 mg,no flushing
same,vision abnormalities,[1]; doses from 5 to 20 mg,no reports of vision abnormalities
same,"erectile function as assessed by all endpoints (IIEF, diaries of sexual attempts, global satisfaction question)",[1]; in vivo,significantly improved erectile function
same,erectile function,"[1]; on demand and daily dose regimens, doses between 1 and 20 mg",significantly improved erectile function
same,patients who rated their ability to maintain an erection (IIEF Question 4) during intercourse as almost always or always,[2]; 2 mg group,19.5%
same,patients who rated their penetration ability (IIEF Question 3) as almost always or always,[2]; 2 mg group,38.1%
same,"sexual performance of men with erectile dysfunction (IIEF, patient diaries, global assessment)","[2]; 2 mg, 5 mg, 10 mg and 25 mg taken on demand","significant improvement, relative to placebo"
same,patients who rated their ability to maintain an erection (IIEF Question 4) during intercourse as almost always or always,[2]; 5 mg group,32.6%
same,patients who rated their penetration ability (IIEF Question 3) as almost always or always,[2]; 5 mg group,48.8%
same,patients who rated their ability to maintain an erection (IIEF Question 4) during intercourse as almost always or always,[2]; 10 mg group,39.0%
same,patients who rated their penetration ability (IIEF Question 3) as almost always or always,[2]; 10 mg group,51.2%
same,patients who rated their ability to maintain an erection (IIEF Question 4) during intercourse as almost always or always,[2]; 25 mg group,69.0%
same,patients who rated their penetration ability (IIEF Question 3) as almost always or always,[2]; 25 mg group,83.7%
same,adverse events related to color vision disturbances,[2]; [5],no adverse events related to color vision disturbances were reported
same,severity of adverse events,[2]; [5],mild or moderate in severity
same,change in penetration ability versus placebo (IIEF Question 3),"[2]; all dose levels (2, 5, 10, 25 mg)",statistically significant differences
same,change in penetration ability versus placebo (comparison reported for IIEF Question 4),[2]; the three higher dose levels,statistically significant differences
